# Earlier results in patent US20050074494A1, “Itraconazole immediate release formulation” (priority 2003, published 2005).
compound,measurement,setting,value
"CCC(C)n1ncn(-c2ccc(N3CCN(c4ccc(OCC5COC(Cn6cncn6)(c6ccc(Cl)cc6Cl)O5)cc4)CC3)cc2)c1=O (stereo not drawn) [Itraconazole, 4-[4-[4-[4-[[2-(2,4-dichlorophenyl)-2-(1H-1,2,4-triazol-1-ylmethyl)-1,3-dioxolan-4-yl]methoxy]phenyl]-1-piperazinyl]phenyl]-2,4-dihydro-2-(1-methylpropyl)-3H-1,2,4-triazol-3-one]",solubility in alcohols,alcohols,very slightly soluble
same,solubility in dichloromethane,dichloromethane,freely soluble
same,solubility in water,water,insoluble
